Results reported in PubChem BioAssay AID248 (DTP/NCI, 2004).
Where “and” joins values, the source holds several entries; their conditions need not be identical. Identical values can stand only once. Inconclusive results and toxic doses are left out.

System: L1210 leukemia ip in BDF1 mice, survival T/C
Assay: NCI In Vivo Anticancer Drug Screen. Data for tumor model L1210 Leukemia (intraperitoneal) in B6D2F1 (BDF1) mice
Conditions: endpoint: mean survival time, higher = longer survival
Outline: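 Survival endpoint. Drug-treated group vs vehicle group, expressed as T divided by C. Tumor passaged by transplantation.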

[1] = dose: 100.0 mg/kg/injection, schedule: Q04DX003 (ip), vehicle: Klucel (hydroxypropylcellulose) (HPC)
[2] = dose: 200.0 mg/kg/injection, schedule: Q04DX003 (ip), vehicle: Klucel (hydroxypropylcellulose) (HPC)
[3] = dose: 100.0 mg/kg/injection, schedule: Q01DX009 (ip), vehicle: saline with Tween-80
[4] = dose: 100.0 mg/kg/injection, schedule: Q01DX001 (ip), vehicle: saline with Tween-80
[5] = dose: 200.0 mg/kg/injection, schedule: Q01DX001 (ip), vehicle: saline with Tween-80
[6] = dose: 100.0 mg/kg/injection, schedule: Q04DX002 (ip), vehicle: Klucel (hydroxypropylcellulose) (HPC)
[7] = dose: 100.0 mg/kg/injection, schedule: Q01DX001 (ip), vehicle: saline
[8] = dose: 100.0 mg/kg/injection, schedule: Q01DX009 (ip), vehicle: Klucel (hydroxypropylcellulose) (HPC)
[9] = dose: 200.0 mg/kg/injection, schedule: Q01DX009 (ip), vehicle: Klucel (hydroxypropylcellulose) (HPC)
[10] = dose: 400.0 mg/kg/injection, schedule: Q01DX009 (ip), vehicle: Klucel (hydroxypropylcellulose) (HPC)
[11] = dose: 100.0 mg/kg/injection, schedule: Q04DX003 (ip), vehicle: saline
[12] = dose: 200.0 mg/kg/injection, schedule: Q04DX003 (ip), vehicle: saline
[13] = dose: 200.0 mg/kg/injection, schedule: Q04DX002 (ip), vehicle: Klucel (hydroxypropylcellulose) (HPC)
[14] = dose: 400.0 mg/kg/injection, schedule: Q04DX002 (ip), vehicle: Klucel (hydroxypropylcellulose) (HPC)

CCC(=O)Nc1cccc2ccccc12
T/C (dose: 12.5 mg/kg/injection, schedule: Q01DX009 (ip), vehicle: Klucel (hydroxypropylcellulose) (HPC)): 104 % of control
T/C (dose: 25.0 mg/kg/injection, schedule: Q01DX009 (ip), vehicle: Klucel (hydroxypropylcellulose) (HPC)): 112 % of control
T/C (dose: 50.0 mg/kg/injection, schedule: Q01DX009 (ip), vehicle: Klucel (hydroxypropylcellulose) (HPC)): 101 % of control and 89 % of control
T/C [1]: 95 % of control
T/C [2]: 106 % of control

Cc1ccc(Nc2nc(N)nc(N)c2N)cc1C
T/C (dose: 25.0 mg/kg/injection, schedule: Q01DX Z (ip), vehicle: saline): 93 % of control

Cc1ccc2c[c]1[Hg][CH2]COS2(=O)=O
T/C (dose: 3.12 mg/kg/injection, schedule: Q04DX002 (ip), vehicle: Klucel (hydroxypropylcellulose) (HPC)): 93 % of control
T/C (dose: 6.25 mg/kg/injection, schedule: Q04DX002 (ip), vehicle: Klucel (hydroxypropylcellulose) (HPC)): 101 % of control
T/C (dose: 12.5 mg/kg/injection, schedule: Q04DX002 (ip), vehicle: Klucel (hydroxypropylcellulose) (HPC)): 102 % of control and 90 % of control

CCOc1ccccc1NC(=O)Nc1cccc(F)c1
T/C [3]: 104 % of control
T/C (dose: 200.0 mg/kg/injection, schedule: Q01DX009 (ip), vehicle: saline with Tween-80): 96 % of control
T/C (dose: 400.0 mg/kg/injection, schedule: Q01DX009 (ip), vehicle: saline with Tween-80): 93 % of control

S=C(Nc1cc2c3c(c1)CCCN3CCC2)Nc1cc2c3c(c1)CCCN3CCC2
T/C (dose: 50.0 mg/kg/injection, schedule: Q01DX001 (ip), vehicle: saline with Tween-80): 107 % of control
T/C [4]: 94 % of control
T/C [5]: 97 % of control
T/C (dose: 400.0 mg/kg/injection, schedule: Q01DX001 (ip), vehicle: saline with Tween-80): 89 % of control

CC12CCCCC1C(C(C)(C)OC(=O)c1ccc([N+](=O)[O-])cc1)CC2 (stereo not drawn)
T/C (dose: 25.0 mg/kg/injection, schedule: Q04DX002 (ip), vehicle: Klucel (hydroxypropylcellulose) (HPC)): 105 % of control
T/C (dose: 50.0 mg/kg/injection, schedule: Q04DX002 (ip), vehicle: Klucel (hydroxypropylcellulose) (HPC)): 99 % of control
T/C [6]: 89 % of control

Nc1ncn(C2CC(O)C(CO)O2)c(=O)n1 (stereo not drawn)
T/C (dose: 0.05 mg/kg/injection, schedule: Q01DX005 (ip), vehicle: saline): 155 % of control
T/C (dose: 0.12 mg/kg/injection, schedule: Q01DX005 (ip), vehicle: saline): 154 % of control
T/C (dose: 0.78 mg/kg/injection, schedule: Q01DX005 (ip), vehicle: saline): 94 % of control
T/C (dose: 1.56 mg/kg/injection, schedule: Q01DX005 (ip), vehicle: saline): 98 % of control
T/C (dose: 1.56 mg/kg/injection, schedule: Q01DX009 (ip), vehicle: saline): 114 % of control
T/C (dose: 3.12 mg/kg/injection, schedule: Q01DX005 (ip), vehicle: saline): 100 % of control
T/C (dose: 3.12 mg/kg/injection, schedule: Q01DX009 (ip), vehicle: saline): 100 % of control
T/C (dose: 6.25 mg/kg/injection, schedule: Q01DX009 (ip), vehicle: saline): 86 % of control
T/C [7]: 171 % of control
T/C (dose: 100.0 mg/kg/injection, schedule: Q01DX005 (ip), vehicle: saline): 167 % of control and 174 % of control
T/C (dose: 200.0 mg/kg/injection, schedule: Q01DX005 (ip), vehicle: saline): 174 % of control and 198 % of control
T/C (dose: 300.0 mg/kg/injection, schedule: Q04DX003 (ip), vehicle: saline): 167 % of control

S=c1[nH]nc2n1NC(c1ccoc1)=NN2
T/C (dose: 25.0 mg/kg/injection, schedule: Q01DX009 (ip), vehicle: saline with Tween-80): 96 % of control
T/C (dose: 50.0 mg/kg/injection, schedule: Q01DX009 (ip), vehicle: saline with Tween-80): 95 % of control
T/C [3]: 97 % of control

CC(CCN(CC(=O)O)CC(=O)O)N(CC(=O)O)CC(=O)O (stereo not drawn)
T/C [7]: 98 % of control
T/C (dose: 200.0 mg/kg/injection, schedule: Q01DX001 (ip), vehicle: saline): 101 % of control
T/C (dose: 400.0 mg/kg/injection, schedule: Q01DX001 (ip), vehicle: saline): 93 % of control

CCOC(=O)c1ccc(NC(=S)NCc2cccnc2)cc1
T/C [8]: 106 % of control
T/C [9]: 97 % of control
T/C [10]: 102 % of control

CN(C)C=NCCOCc1ccccc1
T/C [11]: 98 % of control
T/C [12]: 93 % of control

C=C(CCCCC)C(=O)/C=C/c1ccc(Cl)c(Cl)c1
T/C (dose: 12.5 mg/kg/injection, schedule: Q04DX002 (ip), vehicle: DMSO): 101 % of control
T/C (dose: 25.0 mg/kg/injection, schedule: Q04DX002 (ip), vehicle: DMSO): 114 % of control
T/C (dose: 50.0 mg/kg/injection, schedule: Q04DX002 (ip), vehicle: DMSO): 104 % of control

CCOC(=O)C(CCc1ccccn1)C(C)=O (stereo not drawn)
T/C (dose: 100.0 mg/kg/injection, schedule: Q01DX009 (ip), vehicle: saline): 97 % of control
T/C (dose: 200.0 mg/kg/injection, schedule: Q01DX009 (ip), vehicle: saline): 107 % of control
T/C (dose: 400.0 mg/kg/injection, schedule: Q01DX009 (ip), vehicle: saline): 102 % of control

N#Cc1c(/N=C/c2ccc3c(c2)CCC3)oc(-c2ccccc2)c1-c1ccccc1
T/C [1]: 103 % of control
T/C [2]: 97 % of control
T/C (dose: 400.0 mg/kg/injection, schedule: Q04DX003 (ip), vehicle: Klucel (hydroxypropylcellulose) (HPC)): 94 % of control

COc1ccc(CC[n+]2ccc(C#N)c(C(C)=O)c2)cc1OC
T/C (dose: 75.0 mg/kg/injection, schedule: Q01DX001 (ip), vehicle: carboxymethylcellulose (CMC)): 106 % of control
T/C (dose: 150.0 mg/kg/injection, schedule: Q01DX001 (ip), vehicle: carboxymethylcellulose (CMC)): 105 % of control

N#Cc1ccccc1COCc1ccccc1
T/C [8]: 102 % of control
T/C [9]: 98 % of control
T/C [10]: 95 % of control

NC(=O)O/N=C/c1ccccn1
T/C (dose: 100.0 mg/kg/injection, schedule: Q04DX003 (ip), vehicle: saline with Tween-80): 105 % of control
T/C (dose: 200.0 mg/kg/injection, schedule: Q04DX003 (ip), vehicle: saline with Tween-80): 103 % of control
T/C (dose: 400.0 mg/kg/injection, schedule: Q04DX003 (ip), vehicle: saline with Tween-80): 106 % of control

C1C2CC3C1C1CN3C21 (stereo not drawn)
T/C (dose: 6.25 mg/kg/injection, schedule: Q01DX001 (ip), vehicle: saline): 100 % of control
T/C (dose: 12.5 mg/kg/injection, schedule: Q01DX001 (ip), vehicle: saline): 97 % of control
T/C (dose: 25.0 mg/kg/injection, schedule: Q01DX001 (ip), vehicle: saline): 111 % of control

COc1cccc(/C=N/N=C(N)N)c1OC
T/C (dose: 62.5 mg/kg/injection, schedule: Q01DX Z (ip), vehicle: saline): 101 % of control

Nc1ccc2c(c1)S(=O)(=O)c1cc(N)c(S(=O)(=O)O)cc1-2
T/C [6]: 115 % of control
T/C [13]: 94 % of control
T/C [14]: 97 % of control

CCCCNS(=O)(=O)c1n[nH]c(=O)[nH]c1=O
T/C (dose: 100.0 mg/kg/injection, schedule: Q01DX001 (ip), vehicle: other): 104 % of control
T/C (dose: 200.0 mg/kg/injection, schedule: Q01DX001 (ip), vehicle: other): 101 % of control
T/C (dose: 400.0 mg/kg/injection, schedule: Q01DX001 (ip), vehicle: other): 93 % of control

CS(=O)(=O)c1ccc2c(c1)-c1ccc(N)cc1C2=O
T/C (dose: 100.0 mg/kg/injection, schedule: Q01DX001 (ip), vehicle: carboxymethylcellulose (CMC)): 117 % of control
T/C (dose: 200.0 mg/kg/injection, schedule: Q01DX001 (ip), vehicle: carboxymethylcellulose (CMC)): 102 % of control
T/C (dose: 400.0 mg/kg/injection, schedule: Q01DX001 (ip), vehicle: carboxymethylcellulose (CMC)): 102 % of control

C(=N\N=C\c1ccco1)/c1ccco1
T/C [4]: 98 % of control and 103 % of control
T/C [5]: 98 % of control

O=C1/C(=C\c2ccccc2)Cc2cc3c(cc21)OCO3
T/C [11]: 105 % of control
T/C [12]: 113 % of control
T/C (dose: 400.0 mg/kg/injection, schedule: Q04DX003 (ip), vehicle: saline): 102 % of control

CNC(=S)N/N=C(\C=N\NC(=S)NC)c1ccc(OC)cc1
T/C [6]: 101 % of control
T/C [13]: 101 % of control
T/C [14]: 105 % of control

Cc1cc(Cl)ccc1O/C(=C/C(=O)O)C(=O)O
T/C (dose: 100.0 mg/kg/injection, schedule: Q04DX002 (ip), vehicle: saline with Tween-80): 107 % of control
T/C (dose: 200.0 mg/kg/injection, schedule: Q04DX002 (ip), vehicle: saline with Tween-80): 107 % of control
T/C (dose: 400.0 mg/kg/injection, schedule: Q04DX002 (ip), vehicle: saline with Tween-80): 100 % of control
